In the assay the target is T1, (His)6-OsACBP5; rOsACBP5 (Oryza sativa, UniProt Q10P83).
T1 construct: gene ACBP5; N-terminal (His)6-tag, plasmid pOS543 (from pRSETA), E. coli BL21(DE3) Star pLysS, soluble fraction, HisTrap
T1 sequence (Q10P83 32-569): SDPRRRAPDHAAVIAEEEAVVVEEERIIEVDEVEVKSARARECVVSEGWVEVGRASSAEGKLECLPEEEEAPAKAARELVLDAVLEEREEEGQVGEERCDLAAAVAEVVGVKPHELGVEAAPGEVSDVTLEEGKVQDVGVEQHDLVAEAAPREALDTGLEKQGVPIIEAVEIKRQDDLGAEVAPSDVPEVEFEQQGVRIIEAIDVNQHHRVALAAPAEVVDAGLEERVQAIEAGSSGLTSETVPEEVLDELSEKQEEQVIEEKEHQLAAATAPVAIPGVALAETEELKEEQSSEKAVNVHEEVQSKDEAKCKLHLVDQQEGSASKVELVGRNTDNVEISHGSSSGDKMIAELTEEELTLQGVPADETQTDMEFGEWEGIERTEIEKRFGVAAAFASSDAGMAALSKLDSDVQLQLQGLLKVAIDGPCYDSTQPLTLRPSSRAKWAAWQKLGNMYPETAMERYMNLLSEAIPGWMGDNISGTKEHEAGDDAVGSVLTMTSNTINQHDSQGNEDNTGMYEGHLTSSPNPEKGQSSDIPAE
The experiment in a line: isothermal titration calorimetry. The format is binding.

pKd: −log10 of the molar value.

Broadly, the pKd is the Kd on a negative log10 scale, so that one unit is a factor of ten. Read a low pKd as a large Kd.

`CC/C=C\C/C=C\C/C=C\CCCCCCCC(=O)SCCNC(=O)CCNC(=O)[C@H](O)C(C)(C)COP(=O)(O)OP(=O)(O)OC[C@H]1O[C@@H](n2cnc3c(N)ncnc32)[C@H](O)[C@@H]1OP(=O)(O)O` [18:3-acyl-CoA ester] showed a pKd of 7.23.
